Data reported in DBAASP.
In brackets after ≈: the same amount, converted by molar mass.

How the values were obtained:
Experiment in all cases: ≥ marks a high value that may be exact or a test limit, other limits are often not marked, values filed in µg/mL are converted to µM
[1] = tested on: Staphylococcus epidermidis RP62A
[2] = tested on: Pseudomonas aeruginosa ATCC 27853
Candida krusei ATCC 6258 = tested on: Candida krusei ATCC 6258
[3] = tested on: Escherichia coli ATCC 25922
Candida tropicalis = tested on: Candida tropicalis
Candida albicans = tested on: Candida albicans
[4] = tested on: Enterobacter cloacae HNTCC 53001
[5] = tested on: Batrachochytrium dendrobatidis JEL-197
[6] = tested on: Candida albicans ATCC 90028
[7] = tested on: Candida parapsilosis ATCC 22019
[8] = tested on: Proteus mirabilis ATCC 25933
Candida krusei = tested on: Candida krusei
Candida parapsilosis = tested on: Candida parapsilosis
[9] = tested on: Staphylococcus aureus NCTC 8325
[10] = tested on: Klebsiella pneumoniae KK3 9904
[11] = tested on: Enterococcus faecalis ATCC 29212
[12] = tested on: Stenotrophomonas maltophilia CUN 3998-00
[13] = tested on: Pseudomonas aeruginosa CUN 4158-02
[14] = tested on: Staphylococcus aureus ATCC 25923
[15] = tested on: Bordetella bronchiseptica CUN 11844-99
[16] = tested on: Staphylococcus aureus CUN 3792-99
[17] = tested on: Staphylococcus aureus ATCC 43300
[18] = tested on: Acinetobacter baumannii ATCC 19606
[19] = tested on: Klebsiella pneumoniae 01-252
[20] = tested on: Pseudomonas aeruginosa ATCC 9027
Escherichia coli 170 = tested on: Escherichia coli 170
[21] = tested on: Acinetobacter baumannii 5821
Escherichia coli 09-280 = tested on: Escherichia coli 09-280
[22] = tested on: Pseudomonas aeruginosa 5106
Escherichia coli 5509 = tested on: Escherichia coli 5509
[23] = tested on: Staphylococcus aureus ATCC 29213
[24] = tested on: Enterobacter cloacae 06-267
[25] = tested on: Pseudomonas aeruginosa 3599
[26] = tested on: Staphylococcus aureus 06-051
[27] = tested on: Enterobacter cloacae 14-262
[28] = tested on: Staphylococcus aureus 01-001
[29] = tested on: Klebsiella pneumoniae 01-239
Escherichia coli 09-240 = tested on: Escherichia coli 09-240
[30] = tested on: Candida albicans ATCC 14053
[31] = tested on: Cronobacter sakazakii ATCC 29544
[32] = tested on: Candida glabrata ATCC 2001
[33] = tested on: Bacillus cereus ATCC 11778
[34] = tested on: Klebsiella pneumoniae ATCC 700603
[35] = tested on: Escherichia coli CCT 1457
[36] = tested on: Pseudomonas aeruginosa ATCC 15442
[37] = tested on: Staphylococcus epidermidis ATCC 12228
[38] = tested on: Staphylococcus aureus CCT 2580
[39] = tested on: Candida tropicalis ATCC 750
[40] = tested on: Escherichia coli ATCC 43827

An MIC [1] of 5 µM (≈ 13 µg/mL), an MIC [2] of 10 µM (≈ 26.1 µg/mL) and an MIC (Candida krusei ATCC 6258) of 5 µM (≈ 13 µg/mL) were found for `CC[C@H](C)[C@H](NC(=O)[C@@H]1CCCN1C(=O)[C@H](CC(C)C)NC(=O)[C@@H](N)Cc1ccccc1)C(=O)N[C@@H](CC(C)C)C(=O)N[C@@H](C)C(=O)N[C@@H](CO)C(=O)N[C@@H](CC(C)C)C(=O)N[C@@H](C)C(=O)N[C@@H](C)C(=O)N[C@@H](CCCCN)C(=O)N[C@@H](Cc1ccccc1)C(=O)NCC(=O)N1CCC[C@H]1C(=O)N[C@@H](CCCCN)C(=O)N[C@@H](CC(C)C)C(=O)N[C@@H](Cc1ccccc1)C(=O)N[C@H]1CSSC[C@@H](C(=O)O)NC(=O)[C@H](CCCCN)NC(=O)[C@H](CCCCN)NC(=O)[C@H]([C@@H](C)O)NC(=O)[C@H](C(C)C)NC(=O)[C@H](CC(C)C)NC1=O` [FLPILASLAAKFGPKLFCLVTKKC] in this work. It also gave an MIC [3] of 17 µM (≈ 44.3 µg/mL), an MIC (Candida tropicalis) of 5 µM (≈ 13 µg/mL) and an MIC (Candida albicans) of 5 µM (≈ 13 µg/mL). For the same compound, the MIC [4] was 10 µM (≈ 26.1 µg/mL), the MIC [5] was 12.5 µM (≈ 32.6 µg/mL) and the MIC [6] was 3 µM (≈ 7.82 µg/mL). For the same compound, the MIC [7] was 5 µM (≈ 13 µg/mL), the MIC [8] was ≥ 40 µM and the MIC (Candida krusei) was 10 µM (≈ 26.1 µg/mL). For the same compound, the MIC (Candida parapsilosis) was 10 µM (≈ 26.1 µg/mL), the MIC [9] was 2 µM (≈ 5.21 µg/mL) and the MIC [10] was ≥ 40 µM. The MIC [11] was 5 µM (≈ 13 µg/mL).

With `NCCCC[C@H](NC(=O)[C@H](Cc1ccccc1)NC(=O)[C@H](CCCN=C(N)N)NC(=O)[C@H](CCCN=C(N)N)NC(=O)[C@H](CS)NC(=O)CN)C(=O)N[C@@H](CCCCN)C(=O)N[C@@H](Cc1ccccc1)C(=O)N[C@@H](CCCCN)C(=O)N[C@@H](CCCCN)C(=O)N[C@@H](Cc1c[nH]c2ccccc12)C(=O)N[C@@H](CCCN=C(N)N)C(=O)N[C@@H](Cc1ccc(O)cc1)C(=O)N[C@@H](CCCN=C(N)N)C(=O)NCC(=O)N[C@@H](CCCN=C(N)N)C(=O)N[C@@H](Cc1ccccc1)C(=O)N[C@@H](Cc1c[nH]c2ccccc12)C(=O)N[C@@H](Cc1ccccc1)C(=O)N[C@@H](Cc1c[nH]c2ccccc12)C(=O)N[C@@H](CS)C(=O)N[C@@H](Cc1ccccc1)C(=O)NCC(N)=O` [GCRRFKKFKKWRYRGRFWFWCFG] the MIC [12] was 20.3 µM (≈ 64 µg/mL), the MIC [13] was ≥ 40.7 µM and the MIC [14] was 20.3 µM (≈ 64 µg/mL). For the same compound, the MIC [2] was 40.7 µM (≈ 128 µg/mL), the MIC [3] was 20.3 µM (≈ 64 µg/mL) and the MIC [15] was 10.2 µM (≈ 32 µg/mL). It also gave an MIC [16] of 20.3 µM (≈ 64 µg/mL), an MIC [17] of 10.2 µM (≈ 32 µg/mL) and an MIC [18] of 20.3 µM (≈ 64 µg/mL).

With `CC[C@H](C)[C@H](NC(=O)[C@H](C)NC(=O)[C@H](CC(N)=O)NC(=O)[C@H](CCCCN)NC(=O)[C@@H](NC(=O)CNC(=O)[C@H](CCC(=O)O)NC(=O)[C@H](Cc1c[nH]c2ccccc12)NC(=O)[C@H](CC(C)C)NC(=O)[C@H](CCCCN)NC(=O)CNC(=O)[C@H](Cc1c[nH]c2ccccc12)NC(=O)[C@H](Cc1ccccc1)NC(=O)CN)C(C)C)C(N)=O` [GFWGKLWEGVKNAI] the MIC [19] was ≥ 32 µM, the MIC [20] was 10 µM (≈ 16 µg/mL) and the MIC (Escherichia coli 170) was ≥ 32 µM. For the same compound, the MIC [21] was 7 µM (≈ 11.2 µg/mL), the MIC (Escherichia coli 09-280) was ≥ 32 µM and the MIC [14] was 15 µM (≈ 24.1 µg/mL). The MIC [2] was > 32 µM, the MIC [22] was ≥ 32 µM and the MIC (Escherichia coli 5509) was ≥ 32 µM. For the same compound, the MIC [3] was 10 µM (≈ 16 µg/mL), the MIC [23] was 4 µM (≈ 6.42 µg/mL) and the MIC [24] was ≥ 32 µM. For the same compound, the MIC [25] was ≥ 32 µM, the MIC [26] was 4 µM (≈ 6.42 µg/mL) and the MIC [27] was 14 µM (≈ 22.5 µg/mL). The MIC [28] was 4 µM (≈ 6.42 µg/mL), the MIC [29] was 12 µM (≈ 19.2 µg/mL) and the MIC (Escherichia coli 09-240) was 14 µM (≈ 22.5 µg/mL).

An MIC [30] of 16 µM (≈ 25.8 µg/mL), an MIC [2] of 8 µM (≈ 12.9 µg/mL) and an MIC (Candida krusei ATCC 6258) of 8 µM (≈ 12.9 µg/mL) were found for `CC[C@H](C)[C@H](N)C(=O)N[C@@H](CC(N)=O)C(=O)N[C@@H](Cc1c[nH]c2ccccc12)C(=O)N[C@@H](CC(C)C)C(=O)N[C@@H](CCCCN)C(=O)N[C@@H](CC(C)C)C(=O)NCC(=O)N[C@@H](CCCCN)C(=O)N[C@@H](CCSC)C(=O)N[C@H](C(=O)N[C@H](C(=O)N[C@@H](CC(=O)O)C(=O)N[C@@H](C)C(=O)N[C@@H](CC(C)C)C(N)=O)[C@@H](C)CC)C(C)C` [INWLKLGKMVIDAL] in this work. The MIC [3] was 8 µM (≈ 12.9 µg/mL), the MIC [31] was 16 µM (≈ 25.8 µg/mL) and the MIC [23] was 4 µM (≈ 6.45 µg/mL). It also gave an MIC [32] of 8 µM (≈ 12.9 µg/mL), an MIC [33] of 4.96 µM (≈ 8 µg/mL) and an MIC [34] of 4 µM (≈ 6.45 µg/mL). For the same compound, the MIC [7] was 16 µM (≈ 25.8 µg/mL), the MIC [35] was 4.96 µM (≈ 8 µg/mL) and the MIC [36] was ≥ 38.4 µM. It also gave an MIC [37] of 4 µM (≈ 6.45 µg/mL), an MIC [38] of 2.48 µM (≈ 4 µg/mL) and an MIC [39] of 2 µM (≈ 3.23 µg/mL). The MIC [40] was 8 µM (≈ 12.9 µg/mL).
